Experiments:
vascular diffusion = assay: Test for inhibition of the acceleration of vascular diffusion (inhibition of cutaneous chromoleaching of rat); type: in vivo; details: for Inhibition rate (%) / Mean blueing area (mm^2 ± S.E.): rat; for Mean blueing area (mm^2 ± S.E.): none: 200 ± 8.0
Text: 3. Test for inhibition of the acceleration of vascular diffusion
(Test for inhibition of cutaneous chromoleaching of rat)**
**Juduh, J. D. and Willoughby, D.A.; J. Path. Buct., 83, 567 (1962)

sarcomatous growth = assay: Test for inhibition of sarcomatous growth (Rat cotton pellet method); type: in vivo; details: dose 100 mg/kg, 7 rats
Text: 1. Test for inhibition of sarcomatous growth
(Rat cotton pellet method)*
*Meier, R., Schuler, W. and Desaulees, P. : Experienta, 6, (1950)

Acute toxicity, LD50 = type: in vivo; details: mouse, in vivo, mouse male, 5 weeks
Text: (§1) |LD50 (mouse male, 5 weeks)

[1] = Antiinflammatory effect (overall statement); details: in vivo
mouse = assay: Acute toxicity, LD50; type: in vivo; details: mouse male, 5 weeks; intraperitoneal
Text: as §1

| Compound | Inhibition rate (%) (vascular diffusion; 50 mg/kg P.C.) | Mean blueing area (mm^2 ± S.E.) (vascular diffusion; 50 mg/kg P.C.) | Inhibition rate (%) (vascular diffusion; 100 mg/kg P.C.) | Mean blueing area (mm^2 ± S.E.) (vascular diffusion; 100 mg/kg P.C.) | Inhibition rate (%) (sarcomatous growth) | LD50 (Acute toxicity, LD50; ip, intraperitoneal) | LD50 (Acute toxicity, LD50; po) | antiinflammatory effect (in words) [1] | acceleration of vascular diffusion (in words) (vascular diffusion; 100 mg/kg) | LD50 (mouse) |
| --- | --- | --- | --- | --- | --- | --- | --- | --- | --- | --- |
| CC(C)CCC[C@@H](C)[C@H]1CC[C@H]2[C@@H]3CC[C@H]4C[C@H](O)CC[C@]4(C)[C@H]3CC[C@]12C [EC, epicholestanol] | 4.5% | 191 ± 9 mm^2 | 10% | 180 ± 4 mm^2 | 6.9% |  |  |  |  |  |
| CC(C)CCC[C@@H](C)[C@H]1CC[C@H]2[C@@H]3CC[C@H]4C[C@@H](OP(=O)(O)O)CC[C@]4(C)[C@H]3CC[C@]12C [K2 --PEC, dipotassium cholestanyl phosphate] |  |  |  |  | 10.0% |  |  |  |  |  |
| CC(C)CCC[C@@H](C)[C@H]1CC[C@H]2[C@@H]3CC[C@H]4C[C@@H](O)CC[C@]4(C)[C@H]3CC[C@]12C [C, cholestanol] | 4.5% | 191 ± 5 mm^2 | 6% | 188 ± 3 mm^2 | 4.5% |  |  |  |  |  |
| CC(C)CCC[C@@H](C)[C@H]1CC[C@H]2[C@@H]3CC[C@H]4C[C@H](OP(=O)(O)O)CC[C@]4(C)[C@H]3CC[C@]12C [dipotassium epicholestanyl phosphate] | 18% | 164 ± 4 mm^2 | 21% | 158 ± 6 mm^2 | 21.5% | 1580 mg/kg | 9300 mg/kg | remarkably effective as an antiinflammatory agent |  |  |
| CC(C)CCC[C@@H](C)[C@H]1CC[C@H]2[C@@H]3CC[C@H]4C[C@H](OP(=O)(O)O)CC[C@]4(C)[C@H]3CC[C@]12C [epicholestanyl phosphate] |  |  |  |  |  |  |  |  | inhibited | 1850 mg/kg |

Source: US3974188A, “Process for producing cholestane type steroids” (The Lion Dentifrice Co., Ltd., priority 1974, dated 1976)
